# Reference: patent US5486511A, “4-amino-17β-(cyclopropyloxy)androst-4-en-3-one, 4-amino-17β-(cyclopropylamino)androst-4-en-3-one and related compounds as C17-20 lyase and 5α-reductase” (Merrell Dow Pharmaceuticals Inc., priority 1994, dated 1996)
# Assays:
# canine lyase = experiment: Inhibition of canine steroid C17,20 lyase (testicular microsomes); type: biochemical, dog; conditions: canine; 1 μM; preincubation 40 min
# Experimental: (§1) The activity of the present compounds as inhibitors of steroid C17,20 lyase was established using microsomal preparations of the steroid C17,20 lyase enzyme from human or laboratory animal testes. Human testes used for this purpose were obtained from therapeutic orchiectomies. Specifically, microsomes were isolated from human, cynomolgus monkey, dog, rat or athymic nude mouse testicular tissue. The compound to be tested was dissolved in dimethyl sulfoxide and diluted in 0.05M potassium phosphate buffer to give the desired concentrations of the test compound. The potassium phosphate buffer was at pH 7.4 for the human, monkey and dog lyase assays and at pH 7.2 for the rat and athymic nude mouse lyase assays. Assays also contained 1 mM NADPH, 5 mM glucose-6-phosphate, 1 IU/ml glucose-6-phosphate dehydrogenase (an NADPH regenerating system) and microsomal protein in a total volume of 0.2 mL. Control assays contained all components including dimethyl sulfoxide, but with no test compound. All assays were performed in duplicate. […] Radioactivity in the steroid peaks was measured by a Radiomatic Model HS Flo-One detector.
# (§2) The enzyme activity for each incubate was calculated from the percent conversion of substrate to products, and the results were expressed as percent inhibition of control. […] The Ki and kinact for time dependent inhibitors were determined by graphical analysis of Kitz-Wilson plots. […]
# rat lyase = experiment: Inhibition of rat steroid C17,20 lyase (testicular microsomes); type: biochemical; conditions: rat; 0.1 μM; preincubation 40 min
# Experimental: as §1, §2
# nude mouse lyase = experiment: Inhibition of athymic nude mouse steroid C17,20 lyase (testicular microsomes); type: biochemical; conditions: nude mouse; 0.01 μM; preincubation 40 min
# Experimental: as §1, §2
smiles,measurement,setting,value
"C[C@]12CC[C@H]3[C@@H](CCC4=C(N)C(=O)CC[C@@]43C)[C@@H]1CC[C@@H]2OC1CC1 [Compound 2, 4-Amino-17β-(cyclopropyloxy)androst-4-en-3-one]",% Inhibition,canine lyase,57%
same,% Inhibition,rat lyase,70%
same,% Inhibition,nude mouse lyase,84%
